Source: PubChem BioAssay (NCI)
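A five-concentration, 48-hour dose response in 96-well plates underlies each endpoint, interpolated linearly between surrounding concentrations. TGI: total growth inhibition.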

What was measured:
Test in all cases: NCI tumour cell line growth inhibition, 48 h
[1] = test system: HOP-92 NSCLC
[2] = test system: NCI-H522 lung
[3] = test system: SN12C renal
[4] = test system: UACC-257 melanoma
[5] = test system: NCI/ADR-RES ovarian
[6] = test system: HT29 colon
[7] = test system: OVCAR-5 ovarian
[8] = test system: SK-MEL-5 melanoma
[9] = test system: SK-OV-3 ovarian
[10] = test system: MDA-N
[11] = test system: OVCAR-3 ovarian
[12] = test system: SK-MEL-28 melanoma
[13] = test system: BT-549 breast
[14] = test system: SF-539 CNS
[15] = test system: SNB-75 CNS
[16] = test system: COLO 205 colon
[17] = test system: KM12 colon
[18] = test system: CAKI-1 renal
[19] = test system: LOX IMVI melanoma
[20] = test system: EKVX NSCLC

Compound | TGI [1] [µM] | TGI [2] [µM] | TGI [3] [µM] | TGI [4] [µM] | TGI [5] [µM] | TGI [6] [µM] | TGI [7] [µM] | TGI [8] [µM] | TGI [9] [µM] | TGI [10] [µM] | TGI [11] [µM] | TGI [12] [µM] | TGI [13] [µM] | TGI [14] [µM] | TGI [15] [µM] | TGI [16] [µM] | TGI [17] [µM] | TGI [18] [µM] | TGI [19] [µM] | TGI [20] [µM]
CO[C@@H](c1ccccc1)[C@H](O)[C@](O)(c1ccccc1)P(=O)(OC)OC | > 100 | > 100 | > 100 | > 100 | > 100 | > 100 | > 100 | > 100 | > 100 | > 100 | > 100 | > 100 | > 100 | > 100 | > 100 | > 100 | > 100 | > 100 | > 100 | > 100
NC1=Nc2ccccc2Sc2nnc(-c3ccc(Cl)cc3)n21 | > 100 | 68.3 | > 100 | > 100 | > 100 | > 100 | > 100 | > 100 | > 100 | > 100 | > 100 | > 100 | > 100 | > 100 | > 100 | > 100 | > 100 | > 100 | > 100 | > 100
Cc1cc(C2(c3cc(C)c(O)c(C(=O)O)c3)OS(=O)(=O)c3ccccc32)cc(C(=O)O)c1O | > 100 | > 100 | > 100 | > 100 | > 100 | > 100 | > 100 | > 100 | > 100 | > 100 | > 100 | > 100 | > 100 | > 100 | > 100 | > 100 | > 100 | > 100 | > 100 | > 100
O=C1C(N=Nc2ccc(-c3nc4ccccc4o3)cc2)NC(=S)N1c1ccccc1 (centres undefined) | > 100 | > 100 | > 100 | > 100 | > 100 | > 100 | > 100 | > 100 | > 100 | > 100 | 64.3 | > 100 | > 100 | > 100 | > 100 | > 100 | > 100 | > 100 | > 100 | > 100
Clc1ncnc2c1nc(C#Cc1ccccc1)n2Cc1ccccc1 | 59.9 | 36.7 | 60 | 74.7 | > 100 | 72.2 | > 100 | > 100 | > 100 | 53.8 | 21.6 | 44.2 | 49.8 | 83.8 | 92.2 | 45.8 | > 100 | 37.1 | 28.3 | 29.3
CN(C)c1ccc(/C=C/c2cc[n+](C)c3ccccc23)cc1 | 7.85 | 11.5 | 15 | 8.57 | > 100 | 12.2 | 24.9 | 6.21 | 27 | 9.35 | 13.5 | 21.9 | 8.44 | 18.7 | 12.1 | 3.2 | 10.7 | 12.2 | 14.1 | > 100
CSc1c(C(=O)Nc2ccc(Cl)cc2)c(N)[nH]c(=O)c1C#N | 59.9 | 51.7 | > 82.2 | > 93.7 | > 76.5 | > 66.4 | > 89.2 | 64.3 | > 100 | > 70 | 63 | > 100 | > 91.1 | 68.9 | > 100 | 45.8 | > 100 | > 61.1 | > 25.8 | > 80
CCCCCCCC(=O)N/N=C/c1ccc(Sc2nccn2C)c([N+](=O)[O-])c1 | 15 | 28.4 | 28.9 | 26.9 | 48.9 | 23.4 | 39.2 | 26.1 | > 100 | 32 | 36.4 | 27.3 | 34.2 | 34 | 39 | 27.5 | 32.1 | 72.1 | 22.6 | 42.8
Cc1cc(NS(=O)(=O)c2ccc(Nc3c4ccccc4nc4ccc(C(=O)Nc5ccc(S(=O)(=O)N=C(N)N)cc5)cc34)cc2)no1 | > 100 | > 100 | > 100 | > 100 | > 100 | > 100 | > 100 | > 100 | > 100 | > 100 | > 100 | > 100 | > 100 | > 100 | > 100 | > 100 | > 100 | > 100 | > 100 | > 100
COc1ccc(/C=C(\NC(=O)c2ccccc2)C(=O)NN(C)c2ccnc3cc(Cl)ccc23)cc1OC | 55.3 | 44.1 | 66.9 | 79.1 | 43.8 | > 100 | > 100 | 88.3 | > 100 | 65.7 | 69.7 | 58.1 | 39.5 | 46.5 | > 100 | 61 | 34.7 | 90.6 | 35.1 | > 100
c1ccc2c(c1)CCN2CCc1c[nH]c2ccccc12 | > 10 | > 10 | > 10 | > 10 | > 10 | > 10 | > 10 | > 10 | > 10 | > 10 | > 10 | > 10 | > 10 | > 10 | > 10 | > 10 | > 10 | > 10 | > 10 | > 10
CC(C)(C)OC(=O)CN1CCNCCN(CC(=O)OC(C)(C)C)CC1 | > 100 | > 100 | > 100 | > 100 | > 100 | > 100 | > 100 | > 100 | > 100 | > 100 | > 100 | – | > 100 | > 100 | 68.7 | > 100 | > 100 | > 100 | > 100 | > 100
O=C(O)C/C(=C\c1ccccc1)C(=O)O | > 100 | > 100 | > 100 | > 100 | > 100 | > 100 | > 100 | > 100 | > 100 | > 100 | > 100 | > 100 | > 100 | > 100 | > 100 | > 100 | > 100 | > 100 | > 100 | > 100
